“Also recorded” adds a separate entry of the source. Like-named read-outs stand apart in the source and are kept apart here.
Tested on: HCT116 colorectal carcinoma cells
Experiment: MTS cell viability / cell growth inhibition assay
Assay type: cell-based, human
Conditions: for GI50: Homo sapiens, HCT-116, 72 h
Experimental: With milligram quantities of 1a-1i at hand, we began our studies to evaluate the relative efficacy of each analogue using cell growth inhibition studies in HCT116 colorectal carcinoma cells. As reported in FIG. 3, GI50 values were collected for each analog after a 72 h treatment using the MTS cell viability assay (Table 12). Under these conditions, the natural FD-895 (1), 3S-FD-895 (1a) 17S-FD-895 (1d), 17-methoxy-FD-895 (1e) provided activities of <10 nM.
HCT-116 cells was cultured in McCoy's 5a (Life Technologies) supplemented with 10% fetal bovine serum (FBS), 2 mM L-glutamine, and 100 U mL^−1 of penicillin and 100 μg mL^−1 of streptomycin at 37° C. in an atmosphere of 5% CO2. Compounds were dissolved in DMSO (MilliporeSigma). Cells were treated with 1-1j in media with ≥0.5% DMSO for 4-72 h.
Studies were conducted in […] cell culture plates. HCT-116 plated at 5×10^3 cells/well were cultured for 24 h and then treated with analogs 1-1j for 4-72 h, then washed twice with 100 μL PBS. PBS (100 μL) was added to each well, followed by 20 μL of CellTiter Aqueous One Solution (Promega). After 2 h at 37° C., absorbance readings were taken at 490 nm (test wavelength) and 690 nm (reference wavelength). GI50 values were calculated in Prism (GraphPad) using greater 3 replicates.
Cells were treated with 1 or 1a-1j in media (McCoy's 5a (Life Technologies) supplemented with 10% FBS, 2 mM L-glutamine, and 100 U mL^−1 of penicillin and 100 μg mL^−1 of streptomycin 0.5% DMSO) for 4 h or 24 h. Untreated cells were considered were used as negative control. Total RNA was isolated using mirVana miRNA isolation kit (Life Technologies). A 1 μg sample of RNA was subjected to DNAseI from a TURBO DNA free kit (Life Technologies). The cDNA was prepared by using SuperScript III reverse transcriptase kit (Life Technologies). The amount of unspliced RNA for different genes was determined using Power SYBR Green PCR master mix (Applied Biosystems) by qPCR using specific primers for each gene. qPCR using 2.5 μM of each primer was performed on 5 ng of the obtained cDNA. qPCR conditions were as follows: 95° C. for 10 min for one cycle, then 95° C. for 10 min for one cycle, then 95° C. for 30 s, 55° C. for 60 s, 72° C. for 60 s, for 40 cycles using the MXPro. Quantification cycle (Cq) values were identified for each sample, and then RNA levels were calculated using 2-ΔΔCT method. GAPDH was used as a control for normalization. At least three replicates were conducted for each compound. Namely, all genes explored in this study were evaluated from the same cell cultures. Here, individual cultures were used for each compound explored and at least three replicates were used for each compound. While experimental variation occurred between the different compound treatments, the levels of the different intron retention, exon skipping or RNA expression were collected from the same cellular material. Statistics were calculated using a standard one-way ANOVA; p values were represented so that * signifies p<0.0001. HCT116 were treated with analogs 1-1j ranging from 0.1-5000 nM for 72 hours, then cell viability was measured using the MTS assay. GI50 values and confidence intervals were calculated using GraphPad (Table 12).

| Structure (SMILES) | cell growth inhibitory activity compared to FD-895 (HCT-116 cells) | GI50 (read-out: GI50 value) | GI50 (read-out: GI50 value (text)) | fold less effective compared to 1a or 1d (HCT116 GI50, compared to 1a or 1d) | fold less active (GI50) than 1 (HCT116 cell growth inhibition, compared to 1) |
| --- | --- | --- | --- | --- | --- |
| CC[C@H](OC)[C@@H](C)[C@H]1O[C@@H]1[C@@H](O)[C@H](C)/C=C/C=C(\C)[C@H]1OC(=O)C[C@H](O)CC[C@@](C)(O)[C@@H](OC(C)=O)/C=C/[C@@H]1C [Analog 1d, 17S-FD-895] | retained potency; also recorded: comparable inhibitor of cell growth as 1 | 2.06 nM | < 10 nM | – | – |
| CC[C@H](OC)[C@@H](C)[C@H]1O[C@@H]1[C@@H](O)[C@H](C)/C=C/C=C(\C)[C@H]1OC(=O)C[C@@H](O)CC[C@@](C)(O)[C@@H](OC(C)=O)/C=C/[C@@H]1C [Analog 1g, 3S,17S-FD-895] | – | 131 nM | 130 nM | 60 fold | 75 fold |
| CC[C@H](OC)[C@@H](C)[C@@H]1O[C@H]1[C@@H](O)[C@H](C)/C=C/C=C(\C)[C@H]1OC(=O)C[C@H](O)CC[C@@](C)(O)[C@@H](OC(C)=O)/C=C/[C@@H]1C [Analog 1i, 17S,18S,19S-FD-895] | – | 446 nM | 450 nM | – | – |
| CC[C@@H](OC)[C@H](C)[C@H]1O[C@@H]1[C@@H](O)[C@H](C)/C=C/C=C(\C)[C@H]1OC(=O)C[C@H](O)CC[C@@](C)(O)[C@@H](OC(C)=O)/C=C/[C@@H]1C [Analog 1j, 17S,20S,21R-FD-895] | – | 262 nM | 260 nM | – | – |

— US12172988B2, “Anticancer and antifungal splice modulators” (priority 2021, dated 2024)
